Data published in patent US20040132095A1, “Method of selecting antimicrobial agent and method of using the same” (priority 2001, published 2004).

What was measured:
[1] = tested on: Chaetomium elatum; experiment: Data base search for antimicrobial agent, filamentous fungus (Example 6); assay type: cell-based
[2] = tested on: all the other isolated bacteria; experiment: Data base search / sterilizing experiment, other isolated strains of Example 1 slime; assay type: cell-based; conditions: strains isolated from slime of Example 1
[3] = tested on: Gram-negative bacterium near-related to Riemerella; experiment: Data base search and sterilizing experiment (Example 9); assay type: cell-based
[4] = tested on: microbe belonging to a genus Microbacterium (microbe number 2401); experiment: Data base search for antimicrobial agent, dominant microbe of yellow-colored slime (Example 4); assay type: cell-based
[5] = tested on: Deinococcus geothermalis; experiment: Analysis of microbial biota of white water of the machine, factory D (Example 3); conditions: DBNPA treatment
Text: In the paper manufacturing factory D, another machine of a type similar to that used in Example 2 operating under conditions similar to those in Example 2 is installed adjacent to the machine of Example 2. In this machine, no occurrence of pink-colored […] recognized even at the occasion at which the pink-colored slime occurred in the machine of Example 2. Therefore, procedures corresponding to those in Example 1 were proceeded, wherein each 36 strains were isolated using agar medium and analysis of the microbial biota was carried out. Since a large number of strains are to be tested, each 16S rDNA obtained from each strain was treated by digestion with three kinds of restriction enzymes (BstUI, RsaI and HhaI) isolatedly to effect TRFLP analysis, in order to group preliminarily into classes of microbes of same reaction pattern, whereupon identification was effected based on the base sequence as identification parameter. It was recognized thereby that the occupation proportion of Deinococcus geothermalis in the isolated 36 strains was calculated to be only 2.7% (one strain). Since the machine construction is similar, this machine would suffer from same trouble by occurrence of pink-colored slime after a prolonged operation. […]

[6] = tested on: slime in CP tube; experiment: Slime control treatment of clear white water pit / CP line, paper machine Y (Example 11); conditions: intermittent introduction into the clear white water pit twice a day
Experimental: In a paper machine Y (a daily throughput of 410 tons, slightly coated paper, pH 7.5) of a paper manufacturing factory B, occurrence of light brown-colored defects having sizes of about 5 mm diameter was recognized frequently since 11th day from the start of operation, caused to result in cessation of operation. The defect portions were cut out from the paper and three cut out pieces (about 8.1 mg) were cut into 2 mm squares, which were placed in a 2 ml microcentrifugal tube made of plastic material. To this tube, 1 ml of a DNA-extracting buffer solution (100 mM Tris-Cl, 100 mM EDTA-Na, 100 mM Na2HPO4 and 1.5 M NaCl (pH 8.0)) was added, followed by standing still at room temperature for 30 minutes to cause the paper pieces to be impregnated sufficiently with the solution.
From the above analysis results, it was assumed that the defect was caused by introduction of the slime formed in CP tube into the papermaking process course upon detachment or the like. In the CP line, clear white water obtained by treating white water through a polydiscfilter was used, which had hitherto not been subjected to a slime control treatment. Therefore, treatment was now applied by intermittent introduction of a slime control agent containing as the main component 2,2-dibromo-3-nitrilopropionamide into the clear white water pit twice a day.

[7] = tested on: slime; experiment: Monitoring demonstrators (slime testers) at paper machine of factory D (Example 3)
Experimental: Since the machine construction is similar, this machine would suffer from same trouble by occurrence of pink-colored slime after a prolonged operation. Therefore, monitoring of machine by prior practice was proceeded more […] the same time, the analysis of the microbial biota of white water same as in the above test method was performed at a more frequent interval, namely, at an interval of 7-14 days (with increase in the number of isolated strains to 48). […] On the other hand, white water devoid of DBNPA content was reserved by storing in a storage reservoir the white water taken from its supply line during a time interval discrepant from the DBNPA injection period, to preserve a reagent-free white water for the test.

[8] = tested on: Deinococcus geothermalis; experiment: Data base search and sterilizing experiment, Example 2; assay type: cell-based; conditions: data base search, confirmed by sterilizing experiment
[9] = tested on: Microbacterium sp. (microbe number 6354); experiment: Data base search for antimicrobial agent, confirmed by sterilizing experiment, dominant microbe of Example 1 slime; assay type: cell-based
[10] = tested on: Rhizobium sp.; experiment: Data base search and sterilizing experiment (Example 9); assay type: cell-based
[11] = tested on: Acidovorax temperans; experiment: as above; assay type: cell-based
[12] = tested on: Deinococcus geothermalis; experiment: as above; assay type: cell-based
[13] = tested on: pink-colored bacterial slime / Deinococcus geothermalis; experiment: Slime control treatment at paper manufacturing factory D, white water circulation system (Example 2); conditions: slime formed during long term slime control with DBNPA based agent
[14] = tested on: Sphingomonas; experiment: Data base search and sterilizing experiment (Example 9); assay type: cell-based
[15] = tested on: slime; experiment: Laboratory torque type slime formation testing apparatus, artificial white water (Example 1); assay type: cell-based
Text: A torque type slime formation testing apparatus was used, which is described in Japanese Patent Kokai Hei 9-75065 A. The testing apparatus is constructed from a stationary outer cylinder and a rotatable inner cylinder disposed concentrically with the outer cylinder leaving a free space therebetween for allowing flow of water therein while rotating the inner cylinder so as to permit to grow slime formed on the surface of the inner […]. To this testing apparatus, an artificial white water (containing 142 mg/liter of soluble starch and 11.6 mg/liter of ammonium sulfate and having a pH of 7.0) was supplied continuously at a temperature of 30° C. so as to maintain a residence time in the apparatus of 20 minutes, while adding thereto intermittently a slime control agent containing as the main component DBNPA (dibromonitrilopropionamide) three times a day each for a duration of 15 minutes at a contact concentration of 2.5 mg/liter. […] Each isolated strain was taken up on a platinum loop and was suspended in 0.4 ml of TE buffer solution (10 mM Tris-HCl, 1 mM EDTA, pH 8.0) retained allotted in a 1.5 ml microcentrifugal tube. Based on the above results, test experiment was carried out under the same experimental condition except that HPGHC was used as the slime control agent so as to maintain the concentration thereof in the system at 0.3 mg/liter. […] This HPGHC-treated slime collected at this occasion was tested by analysis of microbial biota thereof in the same manner as above, whereby Microbacterium sp. was not detected.

[16] = tested on: total microbe cells / slime; experiment: Origin treatment of wet broke chest in paper manufacturing process, total cell count and slime deposition (Example 9)
Experimental: (§1) Samples were collected at various locations in the paper manufacturing process courses and, for each of them, total microbe cell count was measured by microscope direct count method after staining with DAPI, whereupon 48 strains were isolated by agar plate culture to determine the proportion of existence of Deinococcus geothermalis among the 48 strains based on the base sequence of 16S rDNA. Based on the results of the search for slime conrol agent, the treatment scheme was revised to the operation in which a slime control agent containing HPGHC as the effective component is added as the origin treating agent to the wet broke chest three times a day each at a dose rate of 25 milligrams per liter of the retained liquor (chest capacity), while supplying the white water circulation system with a slime control agent containing DBNPA as the effective component in the conventional manner. At the occasion of the second shut down after the revision of the treatment scheme and at an occasion directly before it, samples were collected at various locations in the paper manufacturing process courses, for which total microbe cell count and the proportion of existence of Deinococcus geothermalis were determined in the same way as the former practice. It was found thereby that the total microbe counts were unchanged and within the range of ordinary fluctuation, but Deinococcus geothermalis became undetectable.

[17] = tested on: Deinococcus geothermalis; experiment: Origin treatment of wet broke chest in paper manufacturing process, Deinococcus geothermalis among 48 isolated strains (Example 9)
Experimental: as §1

[18] = tested on: Ralstonia eutropha; assay type: cell-based; conditions: data base search
[19] = DBNPA 2 mg/l or even lower, contact time 30 minutes
[20] = after HPGHC origin treatment plus DBNPA
[21] = after HPGHC origin treatment plus DBNPA, Clear white water in clear white water pit
[22] = after HPGHC origin treatment plus DBNPA, Dry broke chest
[23] = after HPGHC origin treatment plus DBNPA, Wet broke chest
[24] = after HPGHC origin treatment plus DBNPA, White water in white water silo
[25] = second shut down after revision of the treatment scheme (HPGHC to wet broke chest plus DBNPA)

Compound: O=C(CBr)OCC=CCOC(=O)CBr [BBAB, 1,4-bis-(bromoacetoxy)-2-butene]
- susceptibility of Chaetomium elatum [1]: non-susceptible

Compound: N#CC(Br)(Br)C(N)=O [DBNPA, 2,2-dibromo-3-nitrilopropionamide]
- susceptibility of all other isolated bacterium strains [2]: susceptible
- living microbe cells extinct [3, 19]: 99%
- susceptibility of Gram-negative bacterium near-related to Riemerella ([3]; data base search): susceptible
- resistance of dominant microbe (microbe number 2401) [4]: resistance
- occupation proportion of Deinococcus geothermalis ([5]; fifth test cycle on the 47th day, 6 of 48 strains): 12.5%
- occupation proportion of Deinococcus geothermalis ([5]; up to the fourth test cycles, 48 strains): 2-4%
- occurrence of defect on paper [6]: removed
- occurrence of slime formation in the CP tube [6]: decreased remarkably
- sign of growth of slime in demonstrator ([7]; fifth test cycle, 47th day, No. 3 demonstrator inorganic bromine compound, No. 1 and No. 2 demonstrators DBNPA): sign of growth of slime was recognized
- deposited amount of slime in No. 2 demonstrator ([7]; simulator supplied with DBNPA-containing agent, after the change of the machine agent): increased gradually
- occurrence of pink-colored slime in No. 2 demonstrator ([7]; simulator supplied with DBNPA-containing agent, day after the change of the antimicrobial agent): visually recognized on the 14th day
- resistance of Deinococcus geothermalis [8]: resistant
- resistance of Microbacterium sp. to the agent ([9]; data base search, confirmed by sterilizing experiment): resistance
- living microbe cells extinct [10, 19]: 99%
- susceptibility of Rhizobium Sp. ([10]; data base search): susceptible
- living microbe cells extinct [11, 19]: 99%
- susceptibility of Acidovorax temperans ([11]; data base search): susceptible
- sterilization of Deinococcus geothermalis ([12]; DBNPA 30 mg/l for 30 minutes): completely not sterilized
- resistance of Deinococcus geothermalis ([12]; data base search): resistant
- occupation proportion of Deinococcus geothermalis in the entire microbe population [13]: 46%
- living microbe cells extinct [14, 19]: 99%
- susceptibility of Shingomonas ([14]; data base search): susceptible
- susceptibility of Chaetomium elatum [1]: non-susceptible
- slime layer thickness ([15]; DBNPA 2.5 mg/liter contact concentration, three times a day for 15 minutes, 12 days, pH 7.0, 30° C.): 119 μm

Compound: O=C(C(Cl)=NO)c1ccc(O)cc1 [HPGHC, 2-(p-hydroxyphenyl)glyoxylohydroximoyl chloride]
- susceptibility of all other isolated bacterium strains [2]: susceptible
- minimum effective concentration ([9]; from data base for search for antimicrobial agent): 0.2 mg/L
- sterilization of Deinococcus geothermalis ([12]; HPGHC system internal concentration 20 mg/l for 20 minutes, data base): sterilized
- amount of deposition of slime ([16]; HPGHC 25 mg per liter to wet broke chest three times a day plus DBNPA to white water circulation system): reduced considerably
- total microbe cell count in cling substance from the suction box [16, 20]: 3.5×10^9 cells per one gram of dry substance
- Total cell count [16, 21]: 3.1 × 10^7 cells/ml
- Total cell count [16, 22]: 6.0 × 10^7 cells/ml
- Total cell count [16, 23]: 5.3 × 10^7 cells/ml
- Total cell count [16, 24]: 4.8 × 10^7 cells/ml
- total microbe counts [16, 25]: unchanged
- Microbacterium sp. in treated slime (analysis of microbial biota) ([15]; HPGHC 0.3 mg/liter): not detected
- amount of cling substance ([15]; HPGHC 0.3 mg/liter): remarkably decreased
- slime thickness ([15]; HPGHC maintained at 0.3 mg/liter in the system, same test period (12 days)): 3 μm
- Deinococcus geothermalis in cling substance from the suction box [17, 20]: no Deinococcus geothermalis detected
- Number of strains of Deinococcus geothermal is (number of colonies among 48 strains) [17, 21]: 0
- Number of strains of Deinococcus geothermal is (number of colonies among 48 strains) [17, 22]: 0
- Number of strains of Deinococcus geothermal is (number of colonies among 48 strains) [17, 23]: 0
- Number of strains of Deinococcus geothermal is (number of colonies among 48 strains) [17, 24]: 0
- Deinococcus geothermalis in samples from process courses [17, 25]: undetectable

Compound: OCl [sodium hypochlorite]
- ranking of effectiveness for registered Ralstonia eutropha [18]: most effective
